Experimental data reported in article PMC3030585, “Functional Magnetic Resonance Imaging Reveals Different Neural Substrates for the Effects of Orexin-1 and Orexin-2 Receptor Antagonists” (PLoS ONE, 2011).

Tests used:
orexin-2 receptor (OX2R) = molecular target: T1, orexin-2 receptor (OX2R) (Rattus norvegicus, UniProt P56719); assay: antagonism of Orexin-A-induced [3H]inositol phosphates accumulation in RBL cells stably expressing rat OX2R (Schild analysis); assay type: cell-based
T1 construct: gene Hcrtr2
T1 sequence (P56719 1-460): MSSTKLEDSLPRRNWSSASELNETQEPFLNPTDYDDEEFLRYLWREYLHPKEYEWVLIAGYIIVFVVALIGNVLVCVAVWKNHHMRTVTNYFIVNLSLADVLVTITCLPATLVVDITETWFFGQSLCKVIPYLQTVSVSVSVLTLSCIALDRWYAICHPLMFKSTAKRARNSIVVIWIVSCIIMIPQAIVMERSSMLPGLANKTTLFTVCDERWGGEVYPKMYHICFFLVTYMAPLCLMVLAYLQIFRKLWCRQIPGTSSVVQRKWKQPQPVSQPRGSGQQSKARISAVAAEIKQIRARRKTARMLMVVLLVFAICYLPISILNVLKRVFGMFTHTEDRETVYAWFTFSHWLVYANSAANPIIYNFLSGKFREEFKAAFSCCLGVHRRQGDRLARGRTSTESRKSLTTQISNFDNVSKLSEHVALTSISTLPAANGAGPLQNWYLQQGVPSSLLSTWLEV

orexin-1 receptor (OX1R) = molecular target: T2, orexin-1 receptor (OX1R) (Rattus norvegicus, UniProt P56718); assay: antagonism of Orexin-A-induced [3H]inositol phosphates accumulation in RBL cells stably expressing rat OX1R; assay type: cell-based
T2 construct: gene Hcrtr1
T2 sequence (P56718 1-416): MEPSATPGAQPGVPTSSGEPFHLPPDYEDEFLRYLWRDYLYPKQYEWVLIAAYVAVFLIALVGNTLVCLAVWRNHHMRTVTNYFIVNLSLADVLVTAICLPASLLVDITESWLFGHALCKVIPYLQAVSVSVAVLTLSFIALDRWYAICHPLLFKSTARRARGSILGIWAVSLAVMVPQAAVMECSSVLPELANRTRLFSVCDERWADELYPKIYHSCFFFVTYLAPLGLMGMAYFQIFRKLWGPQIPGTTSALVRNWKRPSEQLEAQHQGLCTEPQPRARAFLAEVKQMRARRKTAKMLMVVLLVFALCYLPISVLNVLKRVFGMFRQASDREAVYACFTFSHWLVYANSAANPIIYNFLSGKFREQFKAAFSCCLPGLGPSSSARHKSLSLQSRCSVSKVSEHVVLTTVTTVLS

κ-opioid (KOP) receptor = molecular target: T3, κ-opioid (KOP) receptor (Homo sapiens, UniProt P41145); assay: CEREP/Bioprint binding assay panel (human isoforms)
T3 construct: gene OPRK1
T3 sequence (P41145 whole entry, canonical isoform): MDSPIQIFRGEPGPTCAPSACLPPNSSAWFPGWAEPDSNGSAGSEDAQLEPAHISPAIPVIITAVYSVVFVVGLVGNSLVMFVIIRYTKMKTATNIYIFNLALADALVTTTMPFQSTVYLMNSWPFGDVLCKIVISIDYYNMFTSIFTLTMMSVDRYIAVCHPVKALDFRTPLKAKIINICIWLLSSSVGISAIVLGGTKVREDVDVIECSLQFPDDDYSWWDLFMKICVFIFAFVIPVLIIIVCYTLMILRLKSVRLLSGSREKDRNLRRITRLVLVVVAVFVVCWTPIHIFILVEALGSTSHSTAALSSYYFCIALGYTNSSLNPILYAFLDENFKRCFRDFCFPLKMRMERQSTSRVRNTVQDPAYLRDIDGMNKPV

Kb (orexin-2 receptor (OX2R)) [nM]	Kb (orexin-1 receptor (OX1R)) [nM]	Ki (κ-opioid (KOP) receptor) [nM]	Structure (SMILES)
3.16	1260		CC1(C)OC[C@H](NC(=O)Nc2ccc(Br)cc2Br)[C@H](c2ccccc2)O1 [JNJ10397049]
126	1.58	316	COc1c(F)cccc1C(=O)N1C[C@@H](C)CC[C@H]1CNc1ccc(Br)cn1 [GSK1059865, 5-bromo-N-[(2S,5S)-1-(3-fluoro-2-methoxybenzoyl)-5-methylpiperidin-2-yl]methyl-pyridin-2-amine]
